Assays:
MCF7 = test: Proliferation assay MCF7; type: cell-based, human; settings: MCF7, estrogen receptor-positive mamma carcinoma; 4 days, crystal violet
Description: (§1) Cultivated human tumor cells (originally obtained from ATCC, HeLa-MaTu and HeLa-MaTu-ADR, originally obtained from Epo GmbH, Berlin, Germany) were plated at a density of 1000 to 5000 cells/measuring point, depending on the growth rate of the cell line, in a 96-well multititer plate in 200 μl of growth medium (DMEM/HAMS F12, 2 mM L-glutamine, 10% fetal calf serum). After 24 hours the cells of one plate (zero-point plate) were stained with crystal violet (see below), whereas the medium of the other plates was replaced with fresh culture medium (200 μl), to which the test substances had been added at various concentrations (0 μM, and in the range 0.01-30 μM; the final concentration of the solvent dimethyl sulfoxide was 0.5%). The cells were incubated for 4 days in the presence of the test substances. Cellular proliferation was determined by staining the cells with crystal violet: the cells were fixed by adding 20 μl/measuring point of an 11% glutaraldehyde solution for 15 min at room temperature. After washing the fixed cells with water three times, the plates were dried at room temperature. The cells were stained by adding 100 μl/measuring point of a 0.1% crystal violet solution (pH adjusted to pH3 by adding acetic acid). After washing the stained cells with water three times, the plates were dried at room temperature. The dye was dissolved by adding 100 μl/measuring point of a 10% acetic acid solution. The extinction was determined photometrically at a wavelength of 595 nm. The percentage change in cell growth was calculated by standardization of the measured values to the extinction values of the zero-point plate (=0%) and the extinction of the untreated (0 μM) cells (=100%). The measured data were standardized to 0% inhibition (cell proliferation without inhibitor) and 100% inhibition (zero-point plate). The IC50 values were determined by means of a 4-parameter fit using the company's own software.
(§2) The substances were examined in the following cell lines which, in an exemplary manner, represent the stated indications: […]

DU145 = test: Proliferation assay DU145; type: cell-based, human; settings: DU145, prostate carcinoma; 4 days, crystal violet
Description: as §1, §2

[1] = biological target: T1, VEGF receptor tyrosine kinase-2 (VEGF-R2) (Homo sapiens, UniProt P35968); test: VEGF receptor-2 kinase assay (Assay 3); type: biochemical; settings: 8 μM ATP, poly-(Glu4Tyr), 10 min 22° C.; read-out: VEGF-R2 (Assay 3) Concentration for half-maximal inhibition of the enzyme activity, IC50
T1 construct: GST; made in house; host or cells: baculovirus-infected insect cells (Sf9)
T1 sequence (P35968 20-1356, species assumed): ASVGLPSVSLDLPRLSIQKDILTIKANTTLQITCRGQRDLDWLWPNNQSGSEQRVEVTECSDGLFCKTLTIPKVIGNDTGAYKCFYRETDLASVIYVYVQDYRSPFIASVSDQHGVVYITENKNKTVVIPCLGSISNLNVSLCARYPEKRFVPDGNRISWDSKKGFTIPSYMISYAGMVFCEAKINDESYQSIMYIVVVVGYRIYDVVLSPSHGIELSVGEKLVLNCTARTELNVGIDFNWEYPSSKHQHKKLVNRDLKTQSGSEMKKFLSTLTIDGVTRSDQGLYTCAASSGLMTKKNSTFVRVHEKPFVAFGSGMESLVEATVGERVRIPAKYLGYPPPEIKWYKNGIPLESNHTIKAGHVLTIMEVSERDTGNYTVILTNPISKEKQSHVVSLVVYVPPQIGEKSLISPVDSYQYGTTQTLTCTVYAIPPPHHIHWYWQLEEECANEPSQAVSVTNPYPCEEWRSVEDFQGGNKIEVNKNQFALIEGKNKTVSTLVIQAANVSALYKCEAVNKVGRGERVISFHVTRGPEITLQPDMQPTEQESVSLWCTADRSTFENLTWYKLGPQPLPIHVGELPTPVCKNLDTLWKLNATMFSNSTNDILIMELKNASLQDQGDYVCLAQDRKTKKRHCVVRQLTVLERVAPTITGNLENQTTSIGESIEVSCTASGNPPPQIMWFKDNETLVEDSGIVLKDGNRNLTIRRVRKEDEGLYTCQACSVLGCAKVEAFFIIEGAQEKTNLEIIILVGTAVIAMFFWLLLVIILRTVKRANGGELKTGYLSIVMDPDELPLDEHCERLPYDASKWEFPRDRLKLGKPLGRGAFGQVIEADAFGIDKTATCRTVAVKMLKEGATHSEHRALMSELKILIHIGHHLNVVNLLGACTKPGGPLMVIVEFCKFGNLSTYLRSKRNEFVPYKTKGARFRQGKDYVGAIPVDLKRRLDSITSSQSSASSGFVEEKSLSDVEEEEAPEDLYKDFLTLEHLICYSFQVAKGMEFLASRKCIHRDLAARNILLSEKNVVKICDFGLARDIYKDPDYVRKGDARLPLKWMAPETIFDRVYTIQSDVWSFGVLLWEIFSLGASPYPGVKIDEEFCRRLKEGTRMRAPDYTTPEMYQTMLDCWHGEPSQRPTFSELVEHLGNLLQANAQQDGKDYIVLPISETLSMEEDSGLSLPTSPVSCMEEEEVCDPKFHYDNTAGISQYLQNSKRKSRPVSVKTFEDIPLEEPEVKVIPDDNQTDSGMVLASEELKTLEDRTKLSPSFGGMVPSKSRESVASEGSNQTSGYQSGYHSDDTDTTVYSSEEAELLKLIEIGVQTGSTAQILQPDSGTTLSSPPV
Description: Recombinant VEGF receptor tyrosine kinase-2 was purified as GST fusion protein from baculovirus-infected insect cells (Sf9). Poly-(Glu4Tyr), used as kinase substrate, was purchased from Sigma.
VEGF receptor tyrosine kinase (90 ng/measuring point) was incubated for 10 min at 22° C. in the presence of various concentrations of test substances (0 μM, and within the range 0.001-30 μM) in 30 μl assay buffer [40 mM Tris/HCl pH5.5, 10 mM MgCl2, 1 mM MnCl2, 3 μM Na ortho-vanadate, 1.0 mM dithiothreitol, 8 μM adenosine triphosphate (ATP), 0.96 μg/measuring point poly-(Glu4Tyr), 0.2 μCi/measuring point ^33P-gamma ATP, 1.4% dimethyl sulfoxide]. The reaction was stopped by adding EDTA solution (250 mM, pH 8.0, 15 μl/measuring point).
(§3) From each reaction mixture, 15 μl was applied to P30 filter strips (from Wallac), and unincorporated ^33P-ATP was removed by washing the filter strips three times, for 10 min each time, in 0.5% phosphoric acid. After drying the filter strips for 1 hour at 70° C., the filter strips were covered with scintillator strips (MeltiLex™ A, from Wallac) and stoved for 1 hour at 90° C. The amount of incorporated ^33P (substrate phosphorylation) was determined by scintillation measurement in a gamma-radiation measuring instrument (Wallac). The measured data were standardized to 0% inhibition (enzyme reaction without inhibitor) and 100% inhibition (all assay components except enzyme). The IC50 values were determined by means of a 4-parameter fit using the company's own software.

HeLa-MaTu = test: Proliferation assay HeLa-MaTu; type: cell-based, human; settings: cervix carcinoma, 4 days, crystal violet
Description: as §1, §2

Caco-2 = test: Proliferation assay Caco-2; type: cell-based, human; settings: Caco-2, colon/rectum carcinoma; 4 days, crystal violet
Description: as §1, §2

NCI-H460 = test: Proliferation assay NCI-H460; type: cell-based, human; settings: NCI-H460, non-small-cell bronchial carcinoma; 4 days, crystal violet
Description: as §1, §2

HeLa-MaTu-ADR = test: Proliferation assay HeLa-MaTu-ADR; type: cell-based, human; settings: cervix carcinoma, 4 days, crystal violet
Description: as §1, §2

CDK1/CycB = biological target: T2, CDK1/CycB (Homo sapiens, UniProt P06493); test: CDK1/CycB kinase assay (Assay 1); type: biochemical; settings: 0.5 μM ATP, histon IIIS, 10 min 22° C.; read-out: CDK1/CycB (Assay 1) Concentration for half-maximal inhibition of the enzyme activity, IC50
T2 construct: purchased ProQinase GmbH, Freiburg, Germany; host or cells: baculovirus-infected insect cells (Sf9)
T2 sequence (P06493 whole entry): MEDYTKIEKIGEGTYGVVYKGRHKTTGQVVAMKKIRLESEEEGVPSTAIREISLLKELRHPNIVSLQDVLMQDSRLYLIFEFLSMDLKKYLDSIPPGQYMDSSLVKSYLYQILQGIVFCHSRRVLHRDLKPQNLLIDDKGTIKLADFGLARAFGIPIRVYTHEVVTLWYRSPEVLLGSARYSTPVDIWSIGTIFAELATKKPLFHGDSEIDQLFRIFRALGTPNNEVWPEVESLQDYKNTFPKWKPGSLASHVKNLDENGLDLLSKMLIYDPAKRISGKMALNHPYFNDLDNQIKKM
T2 sequence (P14635 whole entry partner): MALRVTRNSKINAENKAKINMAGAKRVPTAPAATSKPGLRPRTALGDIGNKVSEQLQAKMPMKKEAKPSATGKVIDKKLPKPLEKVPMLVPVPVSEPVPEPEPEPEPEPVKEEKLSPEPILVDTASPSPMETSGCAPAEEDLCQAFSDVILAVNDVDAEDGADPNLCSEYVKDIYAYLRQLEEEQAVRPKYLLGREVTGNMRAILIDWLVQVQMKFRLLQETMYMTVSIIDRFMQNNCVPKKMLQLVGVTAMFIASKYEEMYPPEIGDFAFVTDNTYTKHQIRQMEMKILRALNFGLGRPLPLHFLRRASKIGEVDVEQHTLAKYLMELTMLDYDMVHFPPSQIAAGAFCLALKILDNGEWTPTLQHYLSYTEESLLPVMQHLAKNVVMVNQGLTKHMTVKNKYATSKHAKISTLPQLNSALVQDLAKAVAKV
Description: Recombinant CDK1 and CycB-GST fusion proteins, purified from baculovirus-infected insect cells (Sf9), were purchased from ProQinase GmbH, Freiburg, Germany. The histon HIS used as kinase substrate is commercially available from Sigma.
CDK1/CycB (200 ng/measuring point) was incubated for 10 min at 22° C. in the presence of various concentrations of test substances (0 μM, and within the range 0.01-100 μM) in assay buffer [50 mM Tris/HCl pH8.0, 10 mM MgCl2, 0.1 mM Na ortho-vanadate, 1.0 mM dithiothreitol, 0.5 μM adenosine triphosphate (ATP), 10 μg/measuring point histon IIIS, 0.2 μCi/measuring point ^33P-gamma ATP, 0.05% NP40, 1.25% dimethyl sulfoxide]. The reaction was stopped by adding EDTA solution (250 mM, pH 8.0, 15 μl/measuring point).
as §3, with “μl were” for “μl was”

CDK2/CycE = biological target: T3, CDK2/CycE (Homo sapiens, UniProt P24941); test: CDK2/CycE kinase assay (Assay 2); type: biochemical; settings: 0.5 μM ATP, histon IIIS, 10 min 22° C.; read-out: CDK2/CycE (Assay 2) Concentration for half-maximal inhibition of the enzyme activity, IC50
T3 construct: purchased ProQinase GmbH, Freiburg, Germany; host or cells: baculovirus-infected insect cells (Sf9)
Description: Recombinant CDK2 and CycE-GST fusion proteins, purified from baculovirus-infected insect cells (Sf9), were purchased from ProQinase GmbH, Freiburg, Germany. Histon HIS, used as kinase substrate, was purchased from Sigma.
The reaction was stopped by adding EDTA solution (250 mM, pH 8.0, 15 μl/measuring point).
as §3, with “The measured data were standardized to 0% inhibition (enzyme reaction without inhibitor) and 100% inhibition (all assay components except enzyme).” left out

| Compound | IC50 (MCF7) | IC50 (DU145) | IC50 [1] | IC50 (HeLa-MaTu; Homo sapiens, 96 h) | IC50 (Caco-2) | IC50 (NCI-H460) | IC50 (HeLa-MaTu-ADR) | IC50 (CDK1/CycB) | IC50 (CDK2/CycE) | IC50 (HeLa-MaTu) |
| --- | --- | --- | --- | --- | --- | --- | --- | --- | --- | --- |
| C[C@@H](O)[C@@H](C)Oc1nc(Nc2ccc(S(=N)(=O)C3CC3)cc2)ncc1C(F)(F)F (mixture of isomers) [Example 1-SI-1, (RS)—S-Cyclopropyl-S-(4-{[4-{[(1R,2R)-2-hydroxy-1-methylpropyl]oxy}-5-(trifluoromethyl)-pyrimidin-2-yl]amino}phenyl)sulfoximide] | 48 nM | 45 nM | 114 nM | 13 nM | 80 nM | 48 nM | 35 nM | – | – | – |
| CCS(=N)(=O)c1ccc(Nc2ncc(C(F)(F)F)c(N[C@H](C)[C@@H](C)O)n2)cc1 (mixture of isomers) [Example 6-SI-1, (RS)—S-Ethyl-S-(4-{[4-{[(1R,2R)-2-hydroxy-1-methylpropyl]amino}-5-(trifluoromethyl)-pyrimidin-2-yl]amino}phenyl)sulfoximide] | 59 nM | 100 nM | 73 nM | – | 120 nM | 50 nM | 35 nM | 10 nM | 5 nM | – |
| C[C@@H](O)[C@@H](C)Oc1nc(Nc2ccc(S(C)(=N)=O)cc2)ncc1C(F)(F)F (mixture of isomers) [Example 2-SI-1, (RS)—S-(4-{[4-{[(1R,2R)-2-Hydroxy-1-methylpropyl]oxy}-5-(trifluoromethyl)pyrimidin-2-yl]-amino}phenyl)-S-methylsulfoximide] | 39 nM | 28 nM | – | – | 80 nM | 68 nM | 32 nM | – | – | – |
| CCS(=N)(=O)c1ccc(Nc2ncc(C(F)(F)F)c(N[C@H](C)C(C)(C)O)n2)cc1 (mixture of isomers) [Example 7-SI-1, (RS)—S-Ethyl-S-(4-{[4-{[(R)-2-hydroxy-1,2-dimethylpropyl]amino}-5-(trifluoromethyl)pyrimidin-2-yl]amino}phenyl)sulfoximide] | 106 nM | 152 nM | – | – | 196 nM | 119 nM | 112 nM | – | – | 27 nM |
| CCS(=N)(=O)c1ccc(Nc2ncc(C(F)(F)F)c(N[C@H](C)C(C)(C)O)n2)cc1 (mixture of isomers) [Example 7-SI-2, (RS)—S-Ethyl-S-(4-{[4-{[(R)-2-hydroxy-1,2-dimethylpropyl]amino}-5-(trifluoromethyl)pyrimidin-2-yl]amino}phenyl)sulfoximide] | 39 nM | 42 nM | – | – | 67 nM | 51 nM | 36 nM | – | – | 10 nM |
| C[C@@H](O)[C@@H](C)Nc1nc(Nc2ccc(S(C)(=N)=O)cc2)ncc1C(F)(F)F (mixture of isomers) [Example 8-SI-1, (RS)—S-(4-{[4-{[(1R,2R)-2-Hydroxy-1-methylpropyl]amino}-5-(trifluoromethyl)pyrimidin-2-yl]-amino}phenyl)-S-methylsulfoximide] | – | 64 nM | – | – | – | – | – | – | – | – |
| C[C@@H](O)[C@@H](C)Nc1nc(Nc2ccc(S(C)(=N)=O)cc2)ncc1C(F)(F)F (mixture of isomers) [Example 8-SI-2, (RS)—S-(4-{[4-{[(1R,2R)-2-Hydroxy-1-methylpropyl]amino}-5-(trifluoromethyl)pyrimidin-2-yl]-amino}phenyl)-S-methylsulfoximide] | 23 nM | 30 nM | – | – | 41 nM | 28 nM | 24 nM | – | – | 10 nM |
| C[C@@H](Nc1nc(Nc2ccc(S(C)(=N)=O)cc2)ncc1C(F)(F)F)C(C)(C)O (mixture of isomers) [Example 9-SI-1, (RS)—S-(4-{[4-{[(1R)-2-Hydroxy-1,2-dimethylpropyl]amino}-5-(trifluoromethyl)pyrimidin-2-yl]amino}phenyl)-S-methylsulfoximide] | 89 nM | 34 nM | – | – | 61 nM | 34 nM | 19 nM | – | – | – |
| C[C@@H](Nc1nc(Nc2ccc(S(C)(=N)=O)cc2)ncc1C(F)(F)F)C(C)(C)O (mixture of isomers) [Example 9-SI-2, (RS)—S-(4-{[4-{[(1R)-2-Hydroxy-1,2-dimethylpropyl]amino}-5-(trifluoromethyl)pyrimidin-2-yl]amino}phenyl)-S-methylsulfoximide] | 271 nM | 185 nM | – | – | 200 nM | 112 nM | 114 nM | – | – | 21 nM |
| CCS(=N)(=O)c1ccc(Nc2ncc(C(F)(F)F)c(N[C@H](C)C(C)(C)O)n2)cc1 (single isomer, unassigned) [Example 7-SI-1] | – | – | 143 nM | – | – | – | – | 24 nM | 4 nM | – |
| C[C@@H](Nc1nc(Nc2ccc(S(C)(=N)=O)cc2)ncc1C(F)(F)F)C(C)(C)O (single isomer, unassigned) [Example 9-SI-2] | – | – | 154 nM | – | – | – | – | 17 nM | 3 nM | – |
